Test results taken from US8809234B1, “Drift reduction compositions for agricultural use” (AgQuam LLC, priority 2011, dated 2014).

Key:
Format in all cases: in vivo
Settings in all cases: Glyphosate 0.375 lb/acre; AMS 17 lb/100 gal, NIS, AQ 284 or AQ 268 […] v/v, INTERLOCK 4 fl oz/acre
Corn = assay: Greenhouse study for weed control, corn
Description: (§1) A greenhouse study was conducted to test the efficacy of the AQ 284 combination water conditioning adjuvant and drift reduction composition compared to the commercial standard (INTERLOCK). Greenhouse research was conducted with individual plants growing in 3×3×3 inch pots. Greenhouse treatments were applied with a track sprayer using an 8002 E single nozzle applying 20 gpa.

Sunflower = assay: Greenhouse study for weed control, sunflower
Description: as §1

Wheat = assay: Greenhouse study for weed control, wheat
Description: as §1

Corn, Sunflower, Wheat = assay: Greenhouse study for weed control, average of species
Description: as §1

O=C(O)CNCP(=O)(O)O [Glyphosate, N-(phosphonomethyl)glycine]
Corn % Control 18 Days After Application (Corn): 10.0%
Sunflower % Control 18 Days After Application (Sunflower): 15.0%
Wheat % Control 18 Days After Application (Wheat): 15.0%
Average % Control 18 Days After Application (Corn, Sunflower, Wheat): 13.3%
